Experimental data as given in publication PMC3163001 (Organic letters, 2011).

Target: SylD-CA (Pseudomonas syringae, UniProt Q83Y48)
Assay: ATP-PPi radioactivity exchange assay
Assay type: biochemical
Conditions: reversible adenylation

Row | Structure (SMILES) | ATP-PPi radioactivity exchange assay | ATP-PPi radioactivity exchange assay (preferred substrate of the A domain)
1 | NCCCC[C@H](N)C(=O)O [L-lysine] | L-lysine was reversibly adenylated at a much slower rate | 
2 | NCC/C=C/[C@H](N)C(=O)O [L-3,4-dehydrolysine] |  | As expected L-3,4-dhl was preferentially reversibly adenylated
